Measured values from patent US8592421B2, “Cyclic bioisosters of purine system derivatives and a pharmaceutical composition based thereon” (priority 2003, dated 2013).

How the values were obtained:
[1] = test system: embryonic fibroblasts of mouse NIH-3T3; assay: Effect on endocellular pHi of fibroblasts (microspectrofluorimetry with FDA / BCECF-AM); type: cell-based; settings: for rise of pHi: fibroblasts in an attached spread state; for change of pHi: medium DME without blood serum, 20 minutes; for increase of pHi of cytosol: medium with 10.0% blood serum, 20 minutes after addition
Method: The effect of the compounds according to the invention on the endocellular pH, embryonic fibroblasts of mouse NIH-3T3 supplied by the All-Russian Collection of Cellular Cultures of the Institute of Cytology of the Russian Academy of Sciences St. Petersburg was investigated. The cells were grown in the DMEM (Sigma) medium containing 2.2 g/l of sodium bicarbonate with addition of 80.0 mkg/ml of gentamicin and 10.0% embryonal veal serum at a temperature of 37° C. in an atmosphere containing 5.0% of carbon dioxide. For these experiments use was also made of a medium buffer with 5.0 mM of HEPES and 15.0 mM of sodium bicarbonate without serum or with addition of 5.0% serum. The cells were calculated with the help of a hemocytometer. A share of the dead cells was determined by colouring trypan blue.
The measurements of the endocellular pHi were carried out with the help of colorants FDA (Sigma) and BCECF-AM (Calbiochem) on a microspectrofluorimeter by a standard technique (Koshevoy Yu. V., Akatov V. S., Grobova M. E. Microspectrofluorimeter for measuring endocellular pH (micro pH)”. Devices and equipment for studies in the field of physical-and-chemical biology and biotechnology. Pushchino, 1990. P. 8-14).
The cells at a temperature of 37° C. were colored within 5 minutes with 5.0 mkM PDA that before the colouring was prepared from a 10.0 mM solution in acetone by dilution for 30 minutes in a phosphatic buffer to 0.1 mM or 2.0 mkM 1.0 mM solution BCECF-AM in DMSO.
The two-wave method of determining pHi was used based on the ratio intensities of fluorescence of the cells on two wavelengths (Akatov V. S. et all), “Endocellular pH and substrate dependence of proliferation of fibroblasts of Chinese hamster, Cytology, 1991, 33 (7), p. 86-94). The fluorescence was excited by light at λ=490 nm, the emission was recorded simultaneously with two photomultipliers on wavelengths λ=535 nm and λ=570 nm. The K-ratio of the fluorescence on two wavelengths was determined with a deduction of the background fluorescence of the medium near the investigated cells for 40-60 individual cells, which are then averaged taking into account the measurement error. A thermostatically controlled table was used that allowed measurements to be conducted at a temperature of 37° C. An account was taken for the photodynamic damage of the pigmented cells during long-time continuous illumination by excited light. The readings were taken from a section of the preparation exposed to light for not more than 5 minutes.
The calibration curves for determining the absolute pHi values by magnitude K were constructed using the Thomas technique (Thomas J. A., Bushbaum R. N., Zimniak A. w Racker E. “Intracellular pH measurements in Ehrlich ascites tumor cells utilizing spectroscopic probe generated in situ”, Biochemistry, 1979, v. 18, p. 2210-2218), for which case the pigmented cells treated for 5-10 minutes with carboxyacidic nigericyn (Calbiochem) at a concentration of 5-10 mkg/ml was placed in a solution with a high content of potassium—130 mM KCl, 1.0 mM MgCl2, 20.0 mM of HEPES) and with pH values from 6.2 to 7.6. The K values were measured in the media with different pH assuming that pHi of the cells equals to the pH of the medium due to the action of nigericyn, which exchanges potassium ions for protons and at a high content of potassium in the medium counterbalances the pH of the medium and cells. Calibration curves were used based on the fluorescence of same medium with addition of 5.0 mkM of fluorescence or BCECF were used to the control the stability of the of the instrument readings.
The cells were colored by pigment BCECF-AM and pHi was measured 10 minutes after incubation in the medium with an appropriate pH value. […]

[2] = Electrochemical activity: polarographic reduction on mercury dripping electrode; type: physicochemical; settings: for number of electrons participating in the reduction reaction: calculated with Geirovsky-Ilkovich equation; for i: 2.0% sodium chloride background, 9·10^−4 M; for i / −E1/2: 37° C., forward trace, average for the group of compounds; for −E1/2: vs SCE; for half-wave potential more positive at reverse stroke compared to forward stroke: polarograms of reverse stroke
Method: The study was carried out on a general-purpose polarograph PU-1 with a two-coordinate recorder of the “LKD” type using a three-electrode thermostatically controlled polarographic cell and mercury dripping electrode (MDE) with forced separation of the drop and a dropping period of 0.5 second. A platinum wire was used as an auxiliary electrode and a saturated calomel electrode (SCE) was used as a control electrode.
2.0% solutions of sodium chloride having pH 7.0, 7.2, 7.4, 7.6 were used as a background; the pH values of the background solution were corrected by a solution of sodium hydroxide. The polarographic cell was filled with 5.0 ml of the background solution and for 5 minutes was purged with nitrogen for removing the dissolved oxygen. Then 0.5 ml of solution of the studied substance was added to the background solution, and the polarogram was recorded as a polarographic wave. The concentration of the compounds in the polarographic cell was 9·10^−4 M.
The pH was measured on the pH-meter with an accuracy of +0.05 pH units. The polarographic measurements were carried out at a temperature of 37° C. The recording of polarograms of the investigated materials was effected under conditions of DC current at a scanning rate of the potential 10.0 mV/s with a active scanning stroke from a potential 0 to −0.5 V and sweep retrace from a −0.5 V to 0. The electric-current sensitivity was 5.0 mkA. The scale by the coordinate of the potentials was 50.0 mV/cm. The values of potentials of the half-wave E1/2 of the investigated materials are given with respect to the SCE potential.
The polarogram parameters such as a limiting current ilim and E1/2 were determined by the graphic method. The number of electrons participating in the reaction was calculated on the basis of the analysis of the polarographic wave using the Geirovsky-Ilkovich equation.
The calculation of the number of electrons participating in the reduction reaction was effected using the Geirovsky-Ilkovich equation: […]

Row | Compound | rise of pHi ([1]; 2.0 mkg/ml, on the average) [unit pHi] | rise of pHi ([1]; 20.0 mkg/ml, on the average) [unit pHi] | change of pHi ([1]; 0.02 mkg/ml) | change of pHi ([1]; 0.2 mkg/ml) | change of pHi ([1]; 2.0 mkg/ml, on the average) [unit pHi] | change of pHi ([1]; 20.0 mkg/ml, on the average) [unit pHi] | change of pHi ([1]; 200 mkg/ml) | change of pHi ([1]; 1000 mkg/ml) | increase of pHi of cytosol ([1]; 0.02 mkg/ml) | increase of pHi of cytosol ([1]; 0.2 mkg/ml, on the average) [unit pH] | increase of pHi of cytosol ([1]; 2.0 mkg/ml, on the average) [unit pH] | increase of pHi of cytosol ([1]; 20.0 mkg/ml) | number of electrons participating in the reduction reaction [2] | i ([2]; pH 7.0) [mkA] | −E1/2 ([2]; pH 7.0) [V] | i ([2]; pH 7.2) [mkA] | −E1/2 ([2]; pH 7.2) [V] | i ([2]; pH 7.4) [mkA] | −E1/2 ([2]; pH 7.4) [V] | i ([2]; pH 7.6) [mkA] | other results
1 | O=C([O-])c1ccc2c(=O)[nH][nH]c(=O)c2c1.O=C([O-])c1ccc2c(=O)[nH][nH]c(=O)c2c1.[Na+].[Na+] [Compound 18, disodium salt of 6-carboxy-benzo[d]-3H-pyridazine-1,4-dione] | 0.10 | 0.07 | no effect was found | no effect was found | 0.08 | 0.08 | no effect was found | no effect was found | do not initiate a change of pH | 0.1 | 0.12 | do not initiate a change of pH | 4.09 | 0.23 ± 0.03 | 0.092 ± 0.02 | 0.30 ± 0.01 | 0.09 ± 0.01 | 0.29 ± 0.02 | 0.092 ± 0.02 | 0.31 ± 0.02 | −E1/2 ([2]; pH 7.6): 0.09 ± 0.01 V; half-wave potential more positive at reverse stroke compared to forward stroke [2]: 30.0 mV
2 | O=c1[nH][nH]c(=O)c2ncncc12.[Li] [Compound 35, lithium salt of pyrimido[4,5-d]-6H-pyridazine-5,8-dione] | 0.10 | 0.07 | no effect was found | no effect was found | 0.08 | 0.08 | no effect was found | no effect was found | do not initiate a change of pH | 0.1 | 0.12 | do not initiate a change of pH | 3.5 | 0.30 ± 0.05 | 0.08 ± 0.02 | 0.26 ± 0.02 | 0.085 ± 0.015 | 0.30 ± 0.03 | 0.085 ± 0.02 | 0.30 ± 0.02 | −E1/2 ([2]; pH 7.6): 0.09 ± 0.02 V; half-wave potential more positive at reverse stroke compared to forward stroke [2]: 27.0 mV
3 | O=c1[nH][nH]c(=O)c2ncccc12.[Na] [Compound 7, sodium salt of pyrido[2,3-d]-6H-pyridazine-5,8-dione] | 0.10 | 0.07 | no effect was found | no effect was found | 0.08 | 0.08 | no effect was found | no effect was found | do not initiate a change of pH | 0.1 | 0.12 | do not initiate a change of pH | 3.72 | 0.26 ± 0.04 | 0.11 ± 0.02 | 0.31 ± 0.02 | 0.11 ± 0.03 | 0.27 ± 0.03 | 0.105 ± 0.01 | 0.30 ± 0.01 | −E1/2 ([2]; pH 7.6): 0.105 ± 0.02 V; half-wave potential more positive at reverse stroke compared to forward stroke [2]: 25.0 mV
